row,melting point,Structure (SMILES)
1,126.7 to 127.2 °C,"Nc1nc(C(=O)NC2CCc3ccccc32)cc(-c2ccco2)n1 (stereo in doubt) [Example 78, (R)-2-Amino-6-(2-furyl)-N-(1-indanyl)pyrimidine-4-carboxamide]"
2,111.8 to 112.5 °C,"Nc1nc(C(=O)NC2CCc3ccccc32)cc(-c2ccco2)n1 (stereo in doubt) [Example 79, (S)-2-Amino-6-(2-furyl)-N-(1-indanyl)pyrimidine-4-carboxamide]"
3,229.2 to 234.5 °C,"COc1cccc(CNC(=O)c2cc(-c3ccco3)nc(N)n2)c1 [Example 3, 2-Amino-6-(2-furyl)-N-(3-methoxybenzyl)pyrimidine-4-carboxamide]"
4,139.5 to 143 °C,"Nc1nc(C(=O)N2CCCCC2)cc(-c2ccco2)n1 [Example 5, 1-(2-Amino-6-(2-furyl)pyrimidin-4-ylcarbonyl)piperidine]"
5,218 to 219.8 °C,"NC(=O)c1cc(-c2ccco2)nc(N)n1 [Example 8, 2-Amino-6-(2-furyl)pyrimidine-4-carboxamide]"
6,202.4 to 202.9 °C,"CN(C)c1ccc(CNC(=O)c2cc(-c3ccco3)nc(N)n2)cc1 [Example 9, 2-Amino-6-(2-furyl)-N-(4-dimethylaminobenzyl)pyrimidine-4-carboxamide]"
7,170.6 to 170.7 °C,"Nc1nc(C(=O)NCc2cccc(C(F)(F)F)c2)cc(-c2ccco2)n1 [Example 16, 2-Amino-N-(3-trifluoromethylbenzyl)-6-(2-furyl)pyrimidine-4-carboxamide]"
8,290.9 to 291.3 °C,"Nc1nc(C(=O)NCc2nc3ccccc3[nH]2)cc(-c2ccco2)n1 [Example 17, 2-Amino-N-(1H-benzimidazol-2-ylmethyl)-6-(2-furyl)pyrimidine-4-carboxamide]"
9,195.5 to 197.5 °C,"Nc1nc(C(=O)NCc2ncccc2CN2CCOCC2)cc(-c2ccco2)n1 [Example 22, 2-Amino-6-(2-furyl)-N-(3-(4-morpholinylmethyl)pyridin-2-ylmethyl)pyrimidine-4-carboxamide]"
10,178 to 178.1 °C,"COc1nc(C)ccc1CNC(=O)c1cc(-c2ccco2)nc(N)n1 [Example 29, 2-Amino-6-(2-furyl)-N-(2-methoxy-6-methylpyridin-3-ylmethyl)pyrimidine-4-carboxamide]"
11,209.5 to 210.3 °C,"Cn1ccnc1CNC(=O)c1cc(-c2ccco2)nc(N)n1 [Example 34, 2-Amino-6-(2-furyl)-N-(1-methyl-1H-imidazol-2-ylmethyl)pyrimidine-4-carboxamide]"
12,170.1 to 170.5 °C,"Nc1nc(C(=O)NCc2ccc3[nH]ccc3c2)cc(-c2ccco2)n1 [Example 35, 2-Amino-6-(2-furyl)-N-(5-indolylmethyl)pyrimidine-4-carboxamide]"
13,155.9 to 156 °C,"Cc1[nH]c2ccc(CNC(=O)c3cc(-c4ccco4)nc(N)n3)cc2c1C [Example 36, 2-Amino-N-(2,3-dimethylindol-5-ylmethyl)-6-(2-furyl)pyrimidine-4-carboxamide]"
14,191.8 to 192.2 °C,"Cc1cc(CNC(=O)c2cc(-c3ccco3)nc(N)n2)ccc1[N+](=O)[O-] [Example 37, 2-Amino-6-(2-furyl)-N-(3-methyl-4-nitrobenzyl)pyrimidine-4-carboxamide]"
15,105.6 to 105.7 °C,"Cc1cc2cc(CNC(=O)c3cc(-c4ccco4)nc(N)n3)ccc2[nH]1 [Example 40, 2-Amino-6-(2-furyl)-N-(2-methylindol-5-ylmethyl)pyrimidine-4-carboxamide]"
16,155.2 to 155.7 °C,"CC(C)NC(=O)OCc1cccc(CNC(=O)c2cc(-c3ccco3)nc(N)n2)n1 [Example 41, 6-(2-Amino-6-(2-furyl)pyrimidine-4-carboxamidomethyl)pyridin-2-ylmethyl isopropylcarbamate]"
17,148 to 148.4 °C,"COCc1ccc(C)c(CNC(=O)c2cc(-c3ccco3)nc(N)n2)n1 [Example 46, 2-Amino-6-(2-furyl)-N-(6-methoxymethyl-3-methylpyridin-2-ylmethyl)pyrimidine-4-carboxamide]"
18,193.8 to 194 °C,"Nc1nc(C(=O)NCc2ccc3cc[nH]c3c2)cc(-c2ccco2)n1 [Example 48, 2-Amino-6-(2-furyl)-N-(6-indolylmethyl)pyrimidine-4-carboxamide]"
19,230.7 to 230.9 °C,"Nc1nc(C(=O)NCc2cccc3cccnc23)cc(-c2ccco2)n1 [Example 49, 2-Amino-6-(2-furyl)-N-(quinolin-8-ylmethyl)pyrimidine-4-carboxamide]"
20,171.2 to 172.1 °C,"Nc1nc(C(=O)NCc2ccc3nsnc3c2)cc(-c2ccco2)n1 [Example 53, 2-Amino-N-([2,1,3]benzothiadiazol-5-ylmethyl)-6-(2-furyl)pyrimidine-4-carboxamide]"
21,180.9 to 181.4 °C,"Nc1nc(C(=O)NCc2ccc3ccccc3n2)cc(-c2ccco2)n1 [Example 57, 2-Amino-6-(2-furyl)-N-(quinolin-2-ylmethyl)pyrimidine-4-carboxamide]"

row,melting point,Structure (SMILES)
1,219.9 to 222.3 °C,"Nc1nc(C(=O)NCc2nc3ccccc3s2)cc(-c2ccco2)n1 [Example 58, 2-Amino-N-(benzothiazol-2-ylmethyl)-6-(2-furyl)pyrimidine-4-carboxamide]"
2,154.5 to 156.9 °C,"Cc1ccc(COCC2CC2)nc1CNC(=O)c1cc(-c2ccco2)nc(N)n1 [Example 59, 2-Amino-N-(6-cyclopropylmethoxymethyl-3-methylpyridin-2-ylmethyl)-6-(2-furyl)pyrimidine-4-carboxamide]"
3,158.7 to 158.9 °C,"C[C@H](NC(=O)c1cc(-c2ccco2)nc(N)n1)c1ccccc1 [Example 60, (S)-2-Amino-6-(2-furyl)-N-(1-phenylethyl)pyrimidine-4-carboxamide]"
4,158.8 to 159.1 °C,"C[C@@H](NC(=O)c1cc(-c2ccco2)nc(N)n1)c1ccccc1 [Example 63, (R)-2-Amino-6-(2-furyl)-N-(1-phenylethyl)pyrimidine-4-carboxamide]"
5,226.2 to 226.3 °C,"Nc1nc(C(=O)N2Cc3ccccc3C2)cc(-c2ccco2)n1 [Example 66, 2-(2-Amino-6-(2-furyl)pyrimidin-4-ylcarbonyl)-2,3-dihydro-1H-isoindole]"
6,193.3 to 193.6 °C,"Nc1nc(C(=O)N2CCc3ccccc3C2)cc(-c2ccco2)n1 [Example 71, 2-(2-Amino-6-(2-furyl)pyrimidin-4-ylcarbonyl)-1,2,3,4-tetrahydroisoquinoline]"
7,203.8 to 204.5 °C,"Nc1nc(C(=O)N2CCCc3ccccc32)cc(-c2ccco2)n1 [Example 72, 1-(2-Amino-6-(2-furyl)pyrimidin-4-ylcarbonyl)-1,2,3,4-tetrahydroquinoline]"
8,251.9 to 252.3 °C,"Nc1nc(C(=O)N2CCc3ccccc32)cc(-c2ccco2)n1 [Example 75, 1-(2-Amino-6-(2-furyl)pyrimidin-4-ylcarbonyl)-2,3-dihydroindole]"
9,131 to 131.1 °C,"Nc1nc(C(=O)NCCCc2ccccc2)cc(-c2ccco2)n1 [Example 83, 2-Amino-6-(2-furyl)-N-(3-phenylpropyl)pyrimidine-4-carboxamide]"
10,151.6 to 155.7 °C,"CCCNC(=O)OCc1cccc(CNC(=O)c2cc(-c3ccco3)nc(N)n2)n1 [Example 85, 6-(2-Amino-6-(2-furyl)pyrimidine-4-carboxamidomethyl)pyridin-2-ylmethyl n-propylcarbamate]"
11,191.9 to 192 °C,"Cc1cnc(CNC(=O)c2cc(-c3ccco3)nc(N)n2)cn1 [Example 88, 2-Amino-6-(2-furyl)-N-(5-methylpyrazin-2-ylmethyl)pyrimidine-4-carboxamide]"
12,220 to 221.3 °C,"Nc1nc(C(=O)NC2Cc3ccccc3C2)cc(-c2ccco2)n1 [Example 90, 2-Amino-6-(2-furyl)-N-(2-indanyl)pyrimidine-4-carboxamide]"
13,> 200 °C (dec.),"Nc1nc(C(=O)NCc2ncc[nH]2)cc(-c2ccco2)n1 [Example 91, 2-Amino-6-(2-furyl)-N-(1H-imidazol-2-ylmethyl)pyrimidine-4-carboxamide]"
14,270.7 to 271.5 °C,"CCCn1ccnc1CNC(=O)c1cc(-c2ccco2)nc(N)n1 [Example 92, 2-Amino-6-(2-furyl)-N-(1-n-propyl-1H-imidazol-2-ylmethyl)pyrimidine-4-carboxamide]"
15,178.1 to 179.3 °C,"Nc1nc(C(=O)NCc2cccc(Br)n2)cc(-c2ccco2)n1 [Example 94, 2-Amino-N-(6-bromopyridin-2-ylmethyl)-6-(2-furyl)pyrimidine-4-carboxamide]"
16,248.2 to 249 °C,"Nc1nc(C(=O)NCCCn2ccnc2)cc(-c2ccco2)n1 [Example 96, 2-Amino-6-(2-furyl)-N-(3-(1H-imidazol-1-yl)propyl)pyrimidine-4-carboxamide]"
17,263.1 to 264.9 °C,"CCn1ccnc1CNC(=O)c1cc(-c2ccco2)nc(N)n1 [Example 98, 2-Amino-N-(1-ethyl-1H-imidazol-2-ylmethyl)-6-(2-furyl)pyrimidine-4-carboxamide]"
18,203 to 203.1 °C,"Cc1ccc(CNC(=O)c2cc(-c3ccco3)nc(N)n2)c(N(C)C)n1 [Example 102, 2-Amino-N-(2-dimethylamino-6-methylpyridin-3-ylmethyl)-6-(2-furyl)pyrimidine-4-carboxamide]"
19,144.1 to 144.3 °C,"CCCc1cccc(CNC(=O)c2cc(-c3nccs3)nc(N)n2)n1 [Example 109, 2-Amino-N-(6-n-propylpyridin-2-ylmethyl)-6-(thiazol-2-yl)pyrimidine-4-carboxamide]"
20,168.6 to 168.9 °C,"COCc1cccc(CNC(=O)c2nc(N)nc(-c3ccc(C)o3)c2Cl)n1 [Example 116, 2-Amino-5-chloro-N-(6-methoxymethylpyridin-2-ylmethyl)-6-(5-methyl-2-furyl)pyrimidine-4-carboxamide]"
21,193.5 to 195.1 °C,"COCc1cccc(CNC(=O)c2nc(N)nc(-c3ccc(C)o3)c2Br)n1 [Example 117, 2-Amino-5-bromo-N-(6-methoxymethylpyridin-2-ylmethyl)-6-(5-methyl-2-furyl)pyrimidine-4-carboxamide]"

# Reference: US7875600B2, “Pyrimidine compounds as purine receptor antagonist” (Vernalis (R&D) Limited, priority 2004, dated 2011)
